The subject of data set [1] is Mus musculus. The data set is described as follows: Upregulation of FABP3 gene expression in C57BL/6J mouse muscles at 15 to 150 mg/kg, po. Conditions: Muscle tissue. In kind it is functional, organism-based.
Data set [2] deals with Mus musculus. The data set can be described thus: Antidiabetic activity in diet-induced obese C57BL/6J mouse assessed as reduction in plasma triglyceride at 50 mg/kg, po qd for 4 weeks (reference value: 0.62 +/- 0.02 mM). The class given is functional.
Data set [3] deals with AMPK alpha2/beta1/gamma1 (Homo sapiens) (UniProt P54646+P54619+Q9Y478). The data set is described as follows: Activation of recombinant AMPK alpha2beta1gamma1 (unknown origin) at 20 ug/mL after 2 hrs by scintillation proximity assay relative to AMP. The class given is protein-complex assay.
Data set [4] concerns the target Maternal embryonic leucine zipper kinase (Homo sapiens) (UniProt Q14680). The data set is described as follows: Activity at MELK (unknown origin).
A further data set deals with Cytochrome P450 2C9 (Homo sapiens, UniProt P11712). The data set is described as follows: Inhibition of CYP2C9 (unknown origin). The class given is ADME.
The test system of data set [5] is Mus musculus. The data set can be described thus: Upregulation of COX5B gene expression in C57BL/6J mouse muscles at 15 to 150 mg/kg, po. In kind it is functional, organism-based. As to conditions: Muscle tissue.
Data set [6] has as its target T1, Aurora kinase A (Homo sapiens) (UniProt O14965).
T1 sequence (whole entry): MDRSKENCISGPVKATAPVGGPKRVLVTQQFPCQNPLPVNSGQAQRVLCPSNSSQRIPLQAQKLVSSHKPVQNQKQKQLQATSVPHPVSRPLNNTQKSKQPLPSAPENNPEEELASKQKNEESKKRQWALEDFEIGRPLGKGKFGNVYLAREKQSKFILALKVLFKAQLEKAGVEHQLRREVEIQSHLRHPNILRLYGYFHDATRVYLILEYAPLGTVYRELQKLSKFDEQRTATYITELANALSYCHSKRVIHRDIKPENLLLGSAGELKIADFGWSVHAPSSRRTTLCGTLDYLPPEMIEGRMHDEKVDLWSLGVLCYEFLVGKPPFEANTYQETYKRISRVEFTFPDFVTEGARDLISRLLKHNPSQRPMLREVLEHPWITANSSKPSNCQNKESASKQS
The data set is described as follows: Activity at Aurora A (unknown origin).

Data set [7] relates to Mus musculus. The data set is described as follows: Antidiabetic activity in diet-induced obese C57BL/6J mouse assessed as reduction in plasma triglyceride at 15 mg/kg, po qd for 4 weeks (reference value: 0.62 +/- 0.02 mM). The class given is functional.
Data set [8] can be described thus: AUC (0 to infinity) in Wistar rat at 2 mg/kg, iv by LC-MS/MS analysis. As to conditions: plasma. In kind it is ADME, organism-based. Set-up: time infinity, dose 2 mg/kg, route intravenous.
Data set [9] deals with Mus musculus. The data set is described as follows: Antidiabetic activity in diet-induced obese C57BL/6J mouse assessed as increase in insulin tolerance at 15 to 150 mg/kg, po qd for 4 weeks by insulin tolerance test relative to control. The class given is functional, organism-based.
The nature of data set [10]: Terminal half life in Wistar rat at 2 mg/kg, iv by LC-MS/MS analysis. In kind it is ADME, organism-based. More on the design: dose 2 mg/kg, route intravenous. Conditions: in vivo, read-out: beta t1/2 (converted).
In the next data set the target is Cytochrome P450 2C19 (Homo sapiens, UniProt P33261). The data set is described as follows: Inhibition of CYP2C19 (unknown origin). In kind it is ADME.
Data set [11] is described as follows: Plasma concentration in Wistar rat at 10 mg/kg, po after 4 hrs by LC-MS/MS analysis. The class given is ADME, organism-based. Set-up: dose 10 mg/kg, route oral.
Data set [12] concerns Mus musculus. The data set can be described thus: Upregulation of CPT2 gene expression in C57BL/6J mouse muscles at 15 to 150 mg/kg, po. The class given is functional, organism-based. As to conditions: Muscle tissue.

Activity calls are given as the source filed them. The rule behind the calls is not given here.

Usually AUC(0-inf) stands for the area under the concentration-time curve extrapolated to infinity. A high value points to high exposure.

Sequence of Cytochrome P450 2C19 (P33261 whole entry): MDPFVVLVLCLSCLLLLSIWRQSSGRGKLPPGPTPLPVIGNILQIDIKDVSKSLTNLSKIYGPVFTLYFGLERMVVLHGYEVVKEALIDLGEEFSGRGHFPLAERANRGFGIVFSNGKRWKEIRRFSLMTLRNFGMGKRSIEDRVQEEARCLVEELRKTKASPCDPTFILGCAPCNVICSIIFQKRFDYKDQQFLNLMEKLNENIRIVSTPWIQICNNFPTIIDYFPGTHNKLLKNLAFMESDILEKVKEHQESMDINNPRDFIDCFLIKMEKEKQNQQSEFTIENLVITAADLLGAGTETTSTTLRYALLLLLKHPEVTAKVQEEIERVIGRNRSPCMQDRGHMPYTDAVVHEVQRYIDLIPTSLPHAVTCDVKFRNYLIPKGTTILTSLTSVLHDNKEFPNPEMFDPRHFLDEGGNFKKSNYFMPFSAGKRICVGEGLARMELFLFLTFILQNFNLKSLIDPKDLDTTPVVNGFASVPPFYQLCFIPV
Sequence of Maternal embryonic leucine zipper kinase (Homo sapiens) (Q14680 whole entry, looked up): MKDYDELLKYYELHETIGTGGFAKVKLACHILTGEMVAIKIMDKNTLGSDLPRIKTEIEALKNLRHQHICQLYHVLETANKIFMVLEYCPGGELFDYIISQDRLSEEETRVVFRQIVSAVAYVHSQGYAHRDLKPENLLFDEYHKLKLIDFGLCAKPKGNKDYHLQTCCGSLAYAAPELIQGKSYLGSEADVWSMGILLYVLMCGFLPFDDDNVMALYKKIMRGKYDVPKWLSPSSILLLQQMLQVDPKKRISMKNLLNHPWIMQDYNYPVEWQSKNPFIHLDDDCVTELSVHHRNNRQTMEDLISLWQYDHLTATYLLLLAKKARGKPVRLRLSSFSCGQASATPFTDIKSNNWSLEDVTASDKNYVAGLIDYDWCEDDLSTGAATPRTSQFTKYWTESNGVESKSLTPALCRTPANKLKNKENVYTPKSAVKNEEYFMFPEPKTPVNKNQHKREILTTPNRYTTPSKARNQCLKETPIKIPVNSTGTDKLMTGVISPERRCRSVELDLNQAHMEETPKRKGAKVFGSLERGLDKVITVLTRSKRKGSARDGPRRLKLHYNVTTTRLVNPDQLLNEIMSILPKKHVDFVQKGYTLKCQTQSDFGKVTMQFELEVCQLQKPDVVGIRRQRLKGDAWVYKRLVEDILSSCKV
Sequence of Cytochrome P450 2C9 (P11712 whole entry): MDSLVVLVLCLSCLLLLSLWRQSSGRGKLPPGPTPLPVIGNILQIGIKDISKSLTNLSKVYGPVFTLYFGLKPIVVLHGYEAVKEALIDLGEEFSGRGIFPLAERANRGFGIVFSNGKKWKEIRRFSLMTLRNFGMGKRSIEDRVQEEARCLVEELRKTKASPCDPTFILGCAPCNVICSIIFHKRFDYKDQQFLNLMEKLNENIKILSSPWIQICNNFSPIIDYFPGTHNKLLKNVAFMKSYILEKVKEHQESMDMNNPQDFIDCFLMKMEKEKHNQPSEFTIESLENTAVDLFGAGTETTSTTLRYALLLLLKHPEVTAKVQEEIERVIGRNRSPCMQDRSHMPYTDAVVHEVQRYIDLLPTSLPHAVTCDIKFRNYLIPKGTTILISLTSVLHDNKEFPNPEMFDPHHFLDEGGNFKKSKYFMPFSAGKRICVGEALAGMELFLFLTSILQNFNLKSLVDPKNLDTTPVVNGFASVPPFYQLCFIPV
Sequence of AMPK alpha2/beta1/gamma1 (Homo sapiens) (P54619 whole entry partner): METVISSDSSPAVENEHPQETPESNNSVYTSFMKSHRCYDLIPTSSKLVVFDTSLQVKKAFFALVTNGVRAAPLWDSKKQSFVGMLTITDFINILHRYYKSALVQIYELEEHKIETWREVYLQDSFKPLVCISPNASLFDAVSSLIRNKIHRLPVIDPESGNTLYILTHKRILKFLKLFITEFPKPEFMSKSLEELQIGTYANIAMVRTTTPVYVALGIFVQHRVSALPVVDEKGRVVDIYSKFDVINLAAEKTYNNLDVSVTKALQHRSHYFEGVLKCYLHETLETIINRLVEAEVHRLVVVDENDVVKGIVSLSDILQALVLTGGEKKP
Sequence of AMPK alpha2/beta1/gamma1 (Homo sapiens) (P54646 whole entry): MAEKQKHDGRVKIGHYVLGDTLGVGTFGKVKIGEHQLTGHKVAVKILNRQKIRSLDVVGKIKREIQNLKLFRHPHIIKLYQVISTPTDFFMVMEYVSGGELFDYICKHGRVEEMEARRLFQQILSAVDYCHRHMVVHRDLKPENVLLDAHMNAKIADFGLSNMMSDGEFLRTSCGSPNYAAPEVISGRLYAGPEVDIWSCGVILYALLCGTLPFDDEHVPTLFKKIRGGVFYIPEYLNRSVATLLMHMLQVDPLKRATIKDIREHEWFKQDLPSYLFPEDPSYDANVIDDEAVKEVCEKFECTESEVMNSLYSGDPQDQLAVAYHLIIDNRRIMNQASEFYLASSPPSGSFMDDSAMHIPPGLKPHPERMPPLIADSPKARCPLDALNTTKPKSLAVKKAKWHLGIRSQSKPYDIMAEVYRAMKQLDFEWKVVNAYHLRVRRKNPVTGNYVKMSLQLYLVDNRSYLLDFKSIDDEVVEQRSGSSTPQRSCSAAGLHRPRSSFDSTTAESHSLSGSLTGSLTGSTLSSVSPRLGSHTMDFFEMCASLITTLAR
Sequence of AMPK alpha2/beta1/gamma1 (Homo sapiens) (Q9Y478 2-270 partner limits assumed): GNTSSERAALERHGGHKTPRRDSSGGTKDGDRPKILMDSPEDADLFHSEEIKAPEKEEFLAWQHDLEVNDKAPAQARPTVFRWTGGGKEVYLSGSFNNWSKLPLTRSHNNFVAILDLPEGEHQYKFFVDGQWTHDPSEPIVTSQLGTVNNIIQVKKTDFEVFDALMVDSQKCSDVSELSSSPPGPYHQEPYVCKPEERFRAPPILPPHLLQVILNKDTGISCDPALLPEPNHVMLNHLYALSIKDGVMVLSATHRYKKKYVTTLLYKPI

As for `O=C(O)c1cccc(CN2C(=O)/C(=C(\c3ccccc3)c3ccc(Cl)cc3)c3ccccc32)c1`, the result in the data set with Mus musculus [1], with Mus musculus [5], in the data set on Mus musculus [9] and in the data set with Mus musculus [12] was Active. In addition, the Activity with Mus musculus [2] and with Mus musculus [7] was 0.52 mM each time. Moreover, in data set [3], the Efficacy is 110%. Besides, the result in data set [4] and in data set [6] was inactive. The “inhibition (INH)” value at Cytochrome P450 2C9 and at Cytochrome P450 2C19 was “Not Active” in each case. Also, in [8], the area under the curve AUC(0-inf) worked out at 17500 ng·h/mL. Moreover, the half-life in [10] is 236 min. This compound gave a concentration at 4 h in data set [11] of 3270 ng/mL.
